Measurements: patent US7125995B2, “Substituted amidoalkyl uracils and their use as inhibitors of the poly(adp-ribose) synthetase (PARS)” (Bayer Aktiengesellschaft, priority 2000, dated 2006)

Each compound was assayed on MHEC5-T cells (assay: Cell protection assay (in vitro), H2O2-induced cell death, Alamar blue). Conditions: 3 mM H2O2, 5 hours, 37° C., 50% of maximum cell protection, 10 μM DHCH defined as 100%, read-out: Cell protection (in vitro) EC50.
Type: cell-based
Experimental: In accordance with a method described by Bowes [Bowes et al., Br. J. Pharmacol., 124, 1760–1766 (1998)], the ability of PARS inhibitors to protect cells against cell death induced by incubation with H2O2 is examined in a cell protection assay. Incubation of endothelial cells with H2O2 results in the generation of DNA strand breaks which in turn activate PARS, resulting in a drastic energy decrease in the cells and in cell death. Living cells are quantified by a fluorimetric redox indicator (Alamar blue), which is converted in the electron transport system of the mitochondria.
Specifically, 7500 MHEC5-T cells/well (DSM ACC 336; German collection of microorganisms and cell cultures) are sown in 4 replications on a 96-well plate. After 24 hours, the cells are incubated with 3 mM aqueous H2O2 solution and differing concentrations of the substances in the presence of 6% by volume of Alamar blue solution in the medium at 37° C. for 5 hours. The reference substance used is 10 μM 1,5-dihydroxyisoquinoline (DHCH) solution. After the incubation, the fluorescence is measured at an excitation wavelength of 530–560 nm and an emission wavelength of 590 nm. The percentage for the cell protection is calculated as the difference between the living cells treated only with H2O2 and the cells treated with H2O2 and PARS inhibitors. The internal standard used is 10 μM DHCH, which is defined as 100% protection. The results obtained for the other substances are compared to this value.
The EC50 values indicate the concentration at which 50% of maximum cell protection is reached, maximum protection by 10 μM DHCH being defined as 100%.

**Q.** Which EC50 does the source give for `O=C(CCn1c2c(c(=O)[nH]c1=O)CSCC2)NCC(=O)c1ccc(-c2cnccn2)cc1` [Example 5, 3-(2,4-Dioxo-3,4,7,8-tetrahydro-2H-thiopyrano [4,3-d]pyrimidin-1(5H)-yl)-N-(2-oxo-2-[4-(2-pyrazinyl)phenyl]ethyl)propanecarboxamide] here?
**A.** 70 nM

**Q.** Which EC50 does the source give for `O=C(CCn1c2c(c(=O)[nH]c1=O)CCCC2)NCC(=O)c1ccc(-c2ccncc2)cc1` [Example 7] here?
**A.** 90 nM

**Q.** With `O=C(CCn1c2c(c(=O)[nH]c1=O)CSCC2)NCC(=O)c1ccc(-c2ccc3c(c2)OCO3)cc1` [Example 12] as the compound, how does the EC50 read?
**A.** 95 nM

**Q.** `Cc1csc2c(N3CCN(C(=O)CNC(=O)CCn4c5c(c(=O)[nH]c4=O)CSCC5)CC3)ncnc12` [Example 15] was tested. Which EC50 did it give?
**A.** 50 nM

**Q.** With `O=C(CCn1c2c(c(=O)[nH]c1=O)CSCC2)NCC(=O)N1CCN(c2ncc(Br)cn2)CC1` [Example 24] as the compound, how does the EC50 read?
**A.** 20 nM

**Q.** For `O=C(CCn1c2c(c(=O)[nH]c1=O)CSCC2)NCC(=O)N1CCN(c2ccccc2)CC1` [Example 30], which EC50 is on record?
**A.** 100 nM

**Q.** Which EC50 does the source give for `O=C(CCn1c2c(c(=O)[nH]c1=O)CCCC2)NCC(=O)N1CCN(c2ccc([N+](=O)[O-])cc2)CC1` [Example 32] here?
**A.** 200 nM

**Q.** For `O=C(CCn1c2c(c(=O)[nH]c1=O)CCCC2)NCC(=O)N1CCN(c2ncc(F)cn2)CC1` [Example 40], which EC50 is on record?
**A.** 90 nM

Same assay, conditions: 3 mM H2O2, 5 hours, reference substance, read-out: Cell protection EC50 value

**Q.** For `Oc1cccc2c(O)nccc12` [DHCH, 1,5-dihydroxyisoquinoline, reference compound], which EC50 is on record?
**A.** 2000 nM

Each compound was assayed against T1, human PARS enzyme (Homo sapiens, UniProt P09874) (assay: PARS inhibition test (in vitro)). Conditions: recombinant human PARS, [14C]-NAD+, 10 min room temperature.
T1 construct: made in house; host or cells: baculovirus expression system (Bac-To-Bac, Life Technologies)
Type: biochemical
Experimental: To this end, recombinantly expressed (Bac-To-Bac, Baculo virus expression system; Instruction Manual; Life Technologies) human PARS enzyme is activated in a buffer which contains radioactively labelled [^14C]—NAD^+. The poly(ADP-ribose) units that are synthesized are precipitated using trichloroacetic acid, and the proportion of labelled protein is determined by scintillation measurements. Incubation of PARS with inhibitors leads to a decrease in the proportion of labelled protein and thus to a reduced radioactivity.
• Buffer: 100 mM 2-amino-2-hydroxymethyl-1,3-propanediol (tris)-HCl, pH 7.4 • 10 mM MgCl2 • 1 mM dithiothreitol (DTT) • Tris-HCl and MgCl2 are dissolved in water, DTT is added from an aqueous 100 mM stock solution (stored at −20° C.) and the pH is adjusted with concentrated HCl to 7.4. • DNA: 1 mg/ml of calf thymus DNA • 1 mg/ml of calf thymus DNA (from Sigma) is dissolved in water and sonicated to induce strand breaks. 500 μl aliquots were stored at −20° C. • Histones: 10 mg/ml of type IIA histones, calf thymus • 10 mg/ml of lyophilized histones (from Sigma) are dissolved in water. • 500 μl aliquots are stored at −20° C. • NAD^+ Mix: 2 mM NAD^+ in buffer, • NAD^+ (from Sigma) solutions are prepared freshly before each test. • In each case 3 μl of labelled [^14C]—NAD^+ (2.8 kBq, from Amersham) are added to 7 μl of cold NAD^+ solution. • Trichloroacetic acid (TCA): TCA is stored at 4° C. as a 10% strength by weight solution. • PARS: Human PARS protein is expressed recombinantly in the baculovirus system (Bac-To-Bac, Baculo virus expression system; Instruction Manual; Life Technologies) and purified. 500 μl aliquots are stored at −80° C. Methods
The compounds to be tested are dissolved in DMSO (dimethyl sulphoxide) at a concentration of 10 mM. The assay is carried out in deep 96-well plates. […] The mixture is incubated at room temperature for 10 min, and 1 ml of ice-cold TCA solution is then added, and the precipitated labelled proteins are sucked onto a filter paper (printed filter mat A; from Wallac) using a harvester (from Scatron). The filter is dried, sealed together with a scintillation sheet (Multilex A; from Wallac) and measured in a β counter for 1 min per well.
In addition to the substances described in this application, the known PARS inhibitor 1,5-dihydroxyisoquinoline (DHCH) is tested as reference substance. The results of the test are stated as IC50 values for the inhibition of PARS.

T1 sequence (P09874 whole entry): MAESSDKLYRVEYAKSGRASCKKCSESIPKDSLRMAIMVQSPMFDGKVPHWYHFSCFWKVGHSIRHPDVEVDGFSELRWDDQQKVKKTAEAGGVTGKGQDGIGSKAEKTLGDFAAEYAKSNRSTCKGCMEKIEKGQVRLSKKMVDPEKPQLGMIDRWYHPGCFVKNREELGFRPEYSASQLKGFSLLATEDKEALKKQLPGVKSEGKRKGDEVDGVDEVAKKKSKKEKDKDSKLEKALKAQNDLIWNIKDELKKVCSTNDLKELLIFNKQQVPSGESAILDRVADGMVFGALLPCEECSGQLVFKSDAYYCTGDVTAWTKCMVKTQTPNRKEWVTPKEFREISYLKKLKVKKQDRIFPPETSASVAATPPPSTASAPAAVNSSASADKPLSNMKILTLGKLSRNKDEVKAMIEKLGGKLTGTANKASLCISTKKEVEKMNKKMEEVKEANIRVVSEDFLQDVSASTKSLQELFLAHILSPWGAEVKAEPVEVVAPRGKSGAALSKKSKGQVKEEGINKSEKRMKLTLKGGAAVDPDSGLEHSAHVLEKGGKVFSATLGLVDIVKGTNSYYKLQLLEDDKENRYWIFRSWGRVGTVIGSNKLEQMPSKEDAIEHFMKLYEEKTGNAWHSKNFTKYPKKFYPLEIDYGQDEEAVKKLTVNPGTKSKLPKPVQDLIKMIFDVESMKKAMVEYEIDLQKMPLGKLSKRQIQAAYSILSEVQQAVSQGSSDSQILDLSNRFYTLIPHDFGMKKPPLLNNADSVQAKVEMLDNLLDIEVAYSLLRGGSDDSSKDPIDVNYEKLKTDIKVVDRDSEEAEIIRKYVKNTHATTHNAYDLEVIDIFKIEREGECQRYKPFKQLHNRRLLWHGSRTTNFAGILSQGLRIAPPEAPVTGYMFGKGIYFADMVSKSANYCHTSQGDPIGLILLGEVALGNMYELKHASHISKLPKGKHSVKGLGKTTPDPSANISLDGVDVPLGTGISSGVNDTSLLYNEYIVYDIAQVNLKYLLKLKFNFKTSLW

**Q.** With `O=C(CCn1c2c(c(=O)[nH]c1=O)CSCC2)NCC(=O)c1ccc2ccccc2c1` [Example 6] as the compound, how does the IC50 read?
**A.** 8.5 nM

**Q.** For `O=C(CCn1c2c(c(=O)[nH]c1=O)CCCC2)NCC(=O)c1ccc(-c2ccncc2)cc1` [Example 7], which IC50 is on record?
**A.** 12 nM

**Q.** With `Cc1csc2c(N3CCN(C(=O)CNC(=O)CCn4c5c(c(=O)[nH]c4=O)CSCC5)CC3)ncnc12` [Example 15] as the compound, how does the IC50 read?
**A.** 15 nM

**Q.** For `O=C(CCn1c2c(c(=O)[nH]c1=O)CCCC2)NCC(=O)N1CCN(c2ccccc2C(F)(F)F)CC1` [Example 54], which IC50 is on record?
**A.** 80 nM
